From ChEMBL document CHEMBL5665443, “Enzyme Inhibitor Single Concentration assay results for EUbOPEN Chemogenomics Library” (2024) come the findings set out here.

In experiment [1] the target is Methyl-CpG-binding domain protein 4 (Homo sapiens) (UniProt O95243). Conditions: Compound Concentration 10.0 uM.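 Note: MBD4 activity read as fluorescence at 594 nm from cleavage and release of a quenched duplex DNA oligonucleotide, with APE1 coupled to incise the strand and raise turnover.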
Description: Inhibition of MBD4 by quantifying inhibition of MBD4-mediated cleavage and dissociation of quenched duplex DNA oligonucleotides, measured as fluorescence at 594 nm. To generate a functional strand incision and increase turn-over this assay is coupled to APE1.
Experiment [2] addresses DNA-3-methyladenine glycosylase (Homo sapiens) (UniProt P29372). The conditions noted are these: Compound Concentration 10.0 uM, Hit No.
Description: Inhibition of MPG by quantifying inhibition of MPG-mediated cleavage and dissociation of quenched duplex DNA oligonucleotides, measured as fluorescence at 594 nm. To generate a functional strand incision and increase turn-over this assay is coupled to APE1.
The target of experiment [3] is T1, Adenine DNA glycosylase (Homo sapiens) (UniProt Q9UIF7).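 Note: human MUTYH activity read as 594 nm fluorescence from cleavage and release of a quenched DNA duplex, coupled with APE1 for strand incision, lower signal meaning inhibition.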
T1 sequence (whole entry): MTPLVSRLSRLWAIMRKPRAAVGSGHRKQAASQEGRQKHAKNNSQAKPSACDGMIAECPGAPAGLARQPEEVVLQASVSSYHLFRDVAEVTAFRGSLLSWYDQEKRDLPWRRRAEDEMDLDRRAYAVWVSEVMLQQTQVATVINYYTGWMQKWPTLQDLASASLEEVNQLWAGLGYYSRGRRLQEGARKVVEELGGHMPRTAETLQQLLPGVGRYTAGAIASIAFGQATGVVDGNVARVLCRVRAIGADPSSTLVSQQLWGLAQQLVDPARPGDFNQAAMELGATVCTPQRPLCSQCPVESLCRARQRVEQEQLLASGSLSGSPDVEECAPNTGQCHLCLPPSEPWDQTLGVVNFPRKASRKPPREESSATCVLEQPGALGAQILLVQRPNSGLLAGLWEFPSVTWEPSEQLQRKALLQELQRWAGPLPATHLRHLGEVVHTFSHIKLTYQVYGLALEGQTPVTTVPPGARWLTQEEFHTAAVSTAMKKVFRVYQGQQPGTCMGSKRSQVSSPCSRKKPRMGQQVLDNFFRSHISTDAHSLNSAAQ
Conditions: Compound Concentration 10.0 uM, Hit No.
Description: Inhibition of MUTYH by quantifying inhibition of MUTYH-mediated cleavage and dissociation of quenched duplex DNA oligonucleotides, measured as fluorescence at 594 nm. To generate a functional strand incision and increase turn-over this assay is coupled to APE1.

Experiment [4] deals with Endonuclease 8-like 1 (Homo sapiens) (UniProt Q96FI4). The conditions noted are these: Compound Concentration 10.0 uM, Hit No.
Description: Inhibition of NEIL1 by quantifying inhibition of NEIL1-mediated cleavage and dissociation of quenched duplex DNA oligonucleotides, measured as fluorescence at 594 nm.
The target of experiment [5] is T2, Endonuclease 8-like 2 (Homo sapiens) (UniProt Q969S2).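 Note: fluorescence at 594 nm reports NEIL2 cutting and release of a quenched double-stranded DNA oligo substrate, reduced signal read as inhibition.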
T2 sequence (whole entry): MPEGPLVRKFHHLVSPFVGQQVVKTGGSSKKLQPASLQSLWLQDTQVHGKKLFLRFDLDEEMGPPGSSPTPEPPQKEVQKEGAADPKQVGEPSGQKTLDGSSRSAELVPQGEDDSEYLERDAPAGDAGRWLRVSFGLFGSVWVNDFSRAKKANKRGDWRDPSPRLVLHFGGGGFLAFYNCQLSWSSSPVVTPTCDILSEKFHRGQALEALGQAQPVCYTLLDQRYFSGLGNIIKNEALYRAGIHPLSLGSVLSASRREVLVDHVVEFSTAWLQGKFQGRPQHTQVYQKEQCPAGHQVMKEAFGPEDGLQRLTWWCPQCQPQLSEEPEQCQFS
Conditions: Compound Concentration 10.0 uM, Hit No.
Description: Inhibition of NEIL2 by quantifying inhibition of NEIL2-mediated cleavage and dissociation of quenched duplex DNA oligonucleotides, measured as fluorescence at 594 nm.

Experiment [6] deals with T3, Endonuclease III-like protein 1 (Homo sapiens) (UniProt P78549).
T3 sequence (whole entry): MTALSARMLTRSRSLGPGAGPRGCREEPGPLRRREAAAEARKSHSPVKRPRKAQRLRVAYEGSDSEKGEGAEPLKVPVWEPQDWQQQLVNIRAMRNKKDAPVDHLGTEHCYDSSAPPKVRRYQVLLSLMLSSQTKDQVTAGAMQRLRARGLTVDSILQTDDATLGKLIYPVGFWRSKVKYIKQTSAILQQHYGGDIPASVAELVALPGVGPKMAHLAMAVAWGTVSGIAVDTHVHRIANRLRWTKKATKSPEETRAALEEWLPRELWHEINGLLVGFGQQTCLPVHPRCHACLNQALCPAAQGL
The conditions noted are these: Compound Concentration 10.0 uM, Hit No.
Description: Inhibition of NTHL1 by quantifying inhibition of NTHL1-mediated cleavage and dissociation of quenched duplex DNA oligonucleotides, measured as fluorescence at 594 nm.

Experiment [7] addresses N-glycosylase/DNA lyase (Homo sapiens) (UniProt O15527). The conditions noted are these: Compound Concentration 10.0 uM, Hit No.
Description: Inhibition of OGG1 by quantifying inhibition of OGG1-mediated cleavage and dissociation of quenched duplex DNA oligonucleotides, measured as fluorescence at 594 nm. To generate a functional strand incision and increase turn-over this assay is coupled to APE1.
In experiment [8] the target is T4, Single-strand selective monofunctional uracil DNA glycosylase (Homo sapiens) (UniProt Q53HV7).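 Note: enzymatic SMUG1 assay coupled with APE1, reading fluorescence at 594 nm released when a quenched double-stranded DNA oligonucleotide substrate is cleaved and separated.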
T4 sequence (whole entry): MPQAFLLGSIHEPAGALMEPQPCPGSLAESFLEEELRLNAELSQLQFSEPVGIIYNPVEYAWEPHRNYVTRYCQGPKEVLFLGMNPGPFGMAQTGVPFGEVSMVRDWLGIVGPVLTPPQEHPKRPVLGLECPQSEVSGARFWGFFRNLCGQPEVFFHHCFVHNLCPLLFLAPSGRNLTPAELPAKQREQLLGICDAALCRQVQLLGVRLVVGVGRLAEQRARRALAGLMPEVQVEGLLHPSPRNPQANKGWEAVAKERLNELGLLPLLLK
The conditions noted are these: Compound Concentration 10.0 uM, Hit No.
Description: Inhibition of SMUG1 by quantifying inhibition of SMUG1-mediated cleavage and dissociation of quenched duplex DNA oligonucleotides, measured as fluorescence at 594 nm. To generate a functional strand incision and increase turn-over this assay is coupled to APE1.

Experiment [9] addresses G/T mismatch-specific thymine DNA glycosylase (Homo sapiens) (UniProt Q13569). The conditions noted are these: Compound Concentration 10.0 uM, Hit No.
Description: Inhibition of TDG by quantifying inhibition of TDG-mediated cleavage and dissociation of quenched duplex DNA oligonucleotides, measured as fluorescence at 594 nm. To generate a functional strand incision and increase turn-over this assay is coupled to APE1.
Experiment [10] addresses Uracil-DNA glycosylase (Homo sapiens) (UniProt P13051). Conditions: Compound Concentration 10.0 uM, Hit No.
Description: Inhibition of UNG by quantifying inhibition of UNG-mediated cleavage and dissociation of quenched duplex DNA oligonucleotides, measured as fluorescence at 594 nm. To generate a functional strand incision and increase turn-over this assay is coupled to APE1.

Sequence of Endonuclease 8-like 1 (Homo sapiens) (Q96FI4 whole entry): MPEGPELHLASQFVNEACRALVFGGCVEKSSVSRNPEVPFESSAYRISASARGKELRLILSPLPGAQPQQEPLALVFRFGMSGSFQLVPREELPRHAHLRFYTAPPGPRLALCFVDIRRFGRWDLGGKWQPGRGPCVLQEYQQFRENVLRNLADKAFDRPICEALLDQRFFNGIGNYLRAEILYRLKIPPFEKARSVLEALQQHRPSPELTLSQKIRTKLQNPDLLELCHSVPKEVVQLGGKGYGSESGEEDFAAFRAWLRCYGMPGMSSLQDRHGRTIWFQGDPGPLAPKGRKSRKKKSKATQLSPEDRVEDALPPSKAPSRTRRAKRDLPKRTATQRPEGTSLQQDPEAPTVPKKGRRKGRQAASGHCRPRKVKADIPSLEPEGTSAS
Sequence of N-glycosylase/DNA lyase (Homo sapiens) (O15527 whole entry): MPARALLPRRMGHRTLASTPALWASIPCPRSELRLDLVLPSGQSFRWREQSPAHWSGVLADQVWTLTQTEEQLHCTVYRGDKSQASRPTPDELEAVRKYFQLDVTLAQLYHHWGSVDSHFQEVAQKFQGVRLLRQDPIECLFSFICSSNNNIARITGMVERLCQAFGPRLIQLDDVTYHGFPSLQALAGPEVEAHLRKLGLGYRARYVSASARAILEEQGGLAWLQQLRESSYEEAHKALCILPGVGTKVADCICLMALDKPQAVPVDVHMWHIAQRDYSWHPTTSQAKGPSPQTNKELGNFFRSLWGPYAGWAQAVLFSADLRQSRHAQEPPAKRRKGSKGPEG
Sequence of Methyl-CpG-binding domain protein 4 (Homo sapiens) (O95243 whole entry, the tested form may be a part): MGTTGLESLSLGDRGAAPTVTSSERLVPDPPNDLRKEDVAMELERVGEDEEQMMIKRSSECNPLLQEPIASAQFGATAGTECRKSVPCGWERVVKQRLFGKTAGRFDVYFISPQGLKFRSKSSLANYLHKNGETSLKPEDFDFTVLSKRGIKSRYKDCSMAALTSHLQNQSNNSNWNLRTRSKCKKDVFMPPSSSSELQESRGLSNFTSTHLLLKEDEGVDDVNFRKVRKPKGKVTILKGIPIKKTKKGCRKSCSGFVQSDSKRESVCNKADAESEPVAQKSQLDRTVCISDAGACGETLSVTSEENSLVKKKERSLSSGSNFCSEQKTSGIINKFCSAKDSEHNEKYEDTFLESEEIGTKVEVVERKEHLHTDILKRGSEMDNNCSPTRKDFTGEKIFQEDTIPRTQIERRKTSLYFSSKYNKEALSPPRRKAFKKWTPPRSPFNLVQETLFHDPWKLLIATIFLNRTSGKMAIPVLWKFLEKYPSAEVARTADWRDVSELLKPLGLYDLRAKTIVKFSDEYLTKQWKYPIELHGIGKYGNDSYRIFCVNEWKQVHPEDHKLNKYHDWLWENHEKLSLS
Sequence of G/T mismatch-specific thymine DNA glycosylase (Homo sapiens) (Q13569 whole entry): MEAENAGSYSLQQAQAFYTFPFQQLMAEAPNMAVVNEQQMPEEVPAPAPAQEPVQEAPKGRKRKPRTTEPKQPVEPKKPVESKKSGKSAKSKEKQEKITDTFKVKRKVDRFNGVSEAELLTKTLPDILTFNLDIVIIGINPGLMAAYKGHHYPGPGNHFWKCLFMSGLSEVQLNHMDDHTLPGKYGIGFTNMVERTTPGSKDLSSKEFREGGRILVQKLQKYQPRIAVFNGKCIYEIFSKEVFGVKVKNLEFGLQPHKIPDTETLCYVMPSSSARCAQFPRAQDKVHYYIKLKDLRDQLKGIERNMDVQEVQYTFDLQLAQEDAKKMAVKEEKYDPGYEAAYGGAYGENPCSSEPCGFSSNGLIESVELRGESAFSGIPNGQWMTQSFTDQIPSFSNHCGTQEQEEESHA
Sequence of Uracil-DNA glycosylase (Homo sapiens) (P13051 whole entry): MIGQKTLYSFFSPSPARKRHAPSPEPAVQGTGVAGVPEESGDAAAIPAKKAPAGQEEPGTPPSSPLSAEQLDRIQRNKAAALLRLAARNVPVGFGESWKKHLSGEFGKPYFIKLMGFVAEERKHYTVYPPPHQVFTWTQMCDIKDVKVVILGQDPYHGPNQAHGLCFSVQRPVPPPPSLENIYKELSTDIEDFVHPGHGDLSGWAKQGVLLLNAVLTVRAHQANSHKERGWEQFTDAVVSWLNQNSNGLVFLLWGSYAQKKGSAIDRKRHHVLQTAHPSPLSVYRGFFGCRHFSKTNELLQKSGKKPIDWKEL
Sequence of DNA-3-methyladenine glycosylase (Homo sapiens) (P29372 whole entry): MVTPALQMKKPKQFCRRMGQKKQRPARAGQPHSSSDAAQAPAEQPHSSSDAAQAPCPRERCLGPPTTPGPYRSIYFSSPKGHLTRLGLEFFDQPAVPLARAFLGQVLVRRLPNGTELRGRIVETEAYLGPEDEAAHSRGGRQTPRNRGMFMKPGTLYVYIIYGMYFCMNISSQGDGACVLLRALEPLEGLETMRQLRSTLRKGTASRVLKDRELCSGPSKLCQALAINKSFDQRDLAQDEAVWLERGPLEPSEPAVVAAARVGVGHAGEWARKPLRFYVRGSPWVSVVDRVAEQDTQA

`CC(=O)Nc1cccc2c1c(Sc1ccc(Cl)cc1)c(C)n2CC(=O)O`: the inhibition in experiment [1] (Hit No) is 11.4%; in experiment [2], 5.39%; in experiment [3], 23.9%; in experiment [4], -0.204%; in experiment [5], 5.76%; in experiment [6] it was 6.32%. In addition, the inhibition is 3.49% in experiment [7], -1.39% in experiment [8], 16.4% in experiment [9] and -0.965% in experiment [10].

With `C[C@]1(C(=O)N(CCCC(=O)O)Cc2cccc(Cl)c2)CCN1C(=O)c1csc2ccccc12`, the inhibition in experiment [1] (Hit No) is -2.17%; in experiment [2], -1.32%; in experiment [3], 11.5%; in experiment [4], 3.5%; in experiment [5], -3.73%; in experiment [6] it was -9.8%. In addition, the inhibition in experiment [7] was 3.32%; in [8], 7.04%; in experiment [9] it was 25.5%; in [10], -7.61%.

On to `COc1cc2nc(N3CCN(C(=O)C4CCCO4)CC3)nc(N)c2cc1OC` (stereo not given), for which the inhibition in [1] (Hit No) was 17%; in experiment [2], 11.2%; in experiment [3], 19%; in experiment [4] it was 13.6%; in experiment [5] it was 22.5%; in experiment [6], -3.21%. Besides, the inhibition in experiment [7] was 0.439%; in [8] it was 3.65%; in experiment [9], 22.2%; in [10] it was -7.11%.

With `Cc1c(C2=CCN(C(=O)N(C)C(C)C)CC2)nnn1-c1cccnc1F`, the inhibition was 0.847% in experiment [1] (Hit No); -1.32% in experiment [2]; 17% in [3]; -0.649% in experiment [4]; 9% in experiment [5]; -9.8% in experiment [6]. Moreover, the inhibition in experiment [7] is -1.95%; in experiment [8] it was 11.5%; in experiment [9], 17.2%; in experiment [10] it was -8.86%.

On to `O=C(Nc1ccccc1Br)N[C@@H]1CCN(c2ccc(C(F)(F)F)cn2)C1`, for which the inhibition in experiment [1] (Hit No) is 41.6%; in experiment [2] it was 35.3%; in experiment [3] it was 26.9%; in [4], -1.77%; in [5], 2.71%; in experiment [6], 6.35%. Besides, the inhibition was determined as 3.57% in experiment [7], 15% in experiment [8], 27.5% in [9] and 2.31% in [10].

For the molecule `COc1cc(OC)c(NC(=O)Nc2cc(C)on2)cc1Cl`, the inhibition was -2.96% in [1] (Hit No); -9.71% in experiment [2]; -8.2% in experiment [3]; -2.66% in experiment [4]; 3.98% in experiment [5]; 17.9% in experiment [6]. Also, the inhibition in [7] is -6.94%; in experiment [8], -8.83%; in [9], -8.88%; in experiment [10] it was -3.91%.

Consider `CCOC(=O)c1c(C)[nH]c2ccc3c(c12)CN1CCc2cc(OC)ccc2C1O3` (stereo not given), for which the inhibition in experiment [1] (Hit No) is 29.1%; in experiment [2] it was 18.6%; in experiment [3], 18.2%; in experiment [4] it was -0.0556%; in [5] it was 3.01%; in experiment [6], -1.01%. The inhibition is 32.3% in experiment [7], 8.69% in experiment [8], 29.8% in [9] and -1.04% in experiment [10].

For `O=[N+]([O-])c1ccc2nc(COCc3nc4ccc([N+](=O)[O-])cc4[nH]3)[nH]c2c1`, the inhibition in experiment [1] (Hit No) came out at 19.9%; in experiment [2], 18.4%; in experiment [3], 6.46%; in experiment [4] it was 12.5%; in experiment [5], 2.2%; in experiment [6], 0.568%. Moreover, the inhibition in experiment [7] is 7%; in [8], 4.96%; in experiment [9] it was 27.1%; in experiment [10], 0.834%.

As for `CCCCC[C@H](O)/C=C/[C@H]1CCC(=O)[C@@H]1CCCCCCC(=O)O`, the inhibition in experiment [1] (Hit No) was found to be 17.3%; in experiment [2], 6.97%; in [3] it was 15.9%; in [4], 1.28%; in experiment [5], 4.01%; in experiment [6], 1.19%. For the same molecule, the inhibition in experiment [7] is 3.78%; in experiment [8], -3.08%; in experiment [9], 11.4%; in experiment [10], -4.12%.

On to `NCC(O)c1ccc(O)cc1` (stereo not given), for which the inhibition in [1] (Hit No) was found to be 41.7%; in [2], 13.2%; in experiment [3], 17.4%; in experiment [4], 3.71%; in experiment [5], 2.96%; in experiment [6], 2.22%. Also, the inhibition is -0.921% in experiment [7], 16% in [8], 14.3% in experiment [9] and 0.665% in [10].

Consider `CC1(C)[C@H]2C[C@H](C/C=C\CCCC(=O)O)[C@@H](NC(=O)c3csc4ccc(O)cc34)[C@@H]1C2`, for which the inhibition in [1] (Hit No) was 19.3%; in experiment [2] it was 9.36%; in experiment [3], 14.6%; in experiment [4], 13.3%; in experiment [5] it was 3.51%; in experiment [6], -3.21%. Besides, the inhibition in [7] is 3.96%; in experiment [8] it was -7.2%; in [9], 20.1%; in experiment [10], -7.99%.

For the molecule `CCNC(=O)NS(=O)(=O)c1sc(CC(C)C)cc1-c1ccc(Cn2c(-c3ccccc3)nc(OC)c2C=O)cc1`, the inhibition in experiment [1] (Hit Yes) is 78.6%; in experiment [2], 51.7%; in [3], 90.4%; in experiment [4], 12.3%; in experiment [5], 7.29%; in experiment [6] it was 8.82%. The inhibition in [7] is 21.2%; in experiment [8], 36.2%; in [9], 64.7%; in experiment [10], 6.28%.

For the molecule `Cc1cccc([C@H]2CC[C@@H](N3CCN(c4cccnc4)CC3)CC2)c1` (mixture of isomers), the inhibition in experiment [1] (Hit No) is 56.1%; in experiment [2], 39%; in experiment [3], 35.8%; in experiment [4] it was 1.34%; in experiment [5], 9.59%; in experiment [6], -0.258%. Besides, the inhibition in [7] was found to be 4.72%; in experiment [8], 15.5%; in experiment [9], 47.1%; in experiment [10] it was 1.66%.

Consider `CNC1(C)C2CCC(C2)C1(C)C` (stereo not given), for which the inhibition in [1] (Hit No) was -0.892%; in experiment [2], 6.27%; in experiment [3] it was -4.75%; in [4] it was -4.14%; in experiment [5], -4.94%; in experiment [6] it was -2.73%. The inhibition in experiment [7] was -5.59%; in [8], 1.51%; in experiment [9] it was 10.2%; in experiment [10] it was -5.36%.

Take `Cc1onc(-c2ccc(F)cc2)c1COc1ccc(C(=O)N2CCS(=O)(=O)CC2)cn1`: the inhibition in [1] (Hit No) was 21.2%; in [2], 18.2%; in experiment [3], 32%; in experiment [4] it was -9.77%; in experiment [5] it was -7.99%; in [6], 12.9%. Further, the inhibition in experiment [7] is -9.75%; in [8], -9.34%; in experiment [9], 0.685%; in experiment [10], -0.327%.
